Laboratory results: patent publication US4774232A, “Bile-substituting method of treatment for the promotion of fat digestion” (Chinoin Gyogyszer Es Vegyeszeti Termak Ek Gyara Rt, priority 1985, dated 1988)

Legend:
bile-deficient rats = experiment: Absorption of 3H-stearic acid with oral DIMEB in bile-deficient rats (Example 10); format: in vivo; conditions: for Radioactivity in 10 ml of blood: 14.7 mg 3H-stearic acid + 50 mg DIMEB oral
Procedure: The substitution of the bile by DIMEB in bile-deficiency was studied in rats after ligating the bile duct.
After being starved for 24 hours, the animals were subjected to the bile duct-ligation under nembutal anaesthesia. The absorption was investigated in the 48th hour after starving the animals overnight. The animals were also starved in the course of the examination; but received water ad libitum. One group (3 animals) received 12.8 mg of ^3 H-stearic acid (specific radioactivity: 171.12 kBq/mg), whereas the other group (3 animals) was administered 14.7 mg of ^3 H-stearic acid and 50 mg of DIMEB in 2 ml of distilled water. The substances were suspended in the distilled water ultrasonically. Thereafter, the radioactivity level of the blood was measured at various intervals, by using the liquid scintillation method (Table XI).

[1] = tested on: lipase (pancreas suspension); experiment: In vitro enzymatic hydrolysis of triglycerides: olive oil, pancreas suspension; format: biochemical; conditions: for 0.005 N NaOH consumed: series Bile I, olive oil, pancreas suspension, 37° C.
Procedure: (§1) In an aqueous medium, lipase is capable to split triglycerides only at an extraordinarily low rate. Therefore, an organic solvent should be added to the system, by which the solubility of the triglycerides is increased, but the enzyme activity is diminished. Alternatively, some type of detergent, suitably bile has to be used. The effect of bile was compared to that of DIMEB at 37° C. in such a way that, the quantity of the formed free fatty acids in the samples taken from the reaction mixture at various intervals was titrated by using sodium hydroxide solution. The composition of the reaction mixture was as follows:
(§2) a total volume of 1.5 ml contained 4 μmoles of the substrate (triolein or olive oil), 10 mg of bovine serum albumin, 75 μmoles of sodium chloride, 50 μmoles of a phosphate buffer solution (pH 7.4) and 0.25 ml of an enzyme solution. A lipase of the Serva Company (in an 1 mg/10 ml solution) or a pancreas powder (0.5 g was suspended in 10 ml of distilled water and the slightly opalescent solution obtained after filtration was used) were employed as enzyme preparations.
(§3) The composition of the solutions to be tested were as follows:
(§4) 0.5 ml of buffer+10 mg of serum albumin+3.54 mg of substrate+0.25 ml of enzyme solution plus
(§5) (a) 0.25 ml of diluted bile+0.50 ml of distilled water; or
(§6) (b) 50 mg of dimethyl-β-cyclodextrin dissolved in 0.75 ml of water; or […]

bile duct-ligated rats = experiment: Substitution of the bile in rats: plasma total lipid after single fat dose; format: in vivo, rats (Etymis rattus var. albino)
Procedure: In the first series of experiments, the total lipid concentration of the plasma was investigated in bile-deficient rats.
The experimental rats (Etymis rattus var. albino) were kept on a standard food for 10 days before the experiment. The composition of this animal food was as follows:
The bile duct was ligated under ether anaesthesia.
In the 48th hour following the operation, 1.5 ml of swine fat or 1.5 ml of swine fat together with 75 mg of DIMEB were orally administered. After 4.5 hours, the animals were decapitated and the total lipid concentration of the plasma was determined according to the method of de La Huerga et al. [Amer. J. Clin. Pathol. 23, 1163 (1953)]

[2] = Absorption and elimination of DIMEB in animal experiments; format: in vivo
intact rats = experiment: Lipid absorption in intact rats after oral vegetable oil with DIMEB; format: in vivo; conditions: for Plasma triglyceride concentration / Free fatty acid concentration in the plasma: normal rats; for Plasma triglyceride concentration: 2 ml vegetable oil + 50 mg DIMEB oral; for Free fatty acid concentration in the plasma: 2 ml vegetable oil + DIMEB oral
Procedure: The effect of DIMEB on the absorption of a vegetable oil was investigated in intact rats. The aim of this experiment was to elucidate whether the emulsification and intestinal absorption of the vegetable oil were stimulated by DIMEB in addition to the physiological bile functions. […] Thereafter, the triglyceride and free fatty acid concentration of the blood plasma were examined at various intervals. (Tables II and III). The triglyceride concentration of the plasma was determined by using the method of E. Van Handel [Clin. […] G. Dumcombe [Biochem.

lipase = experiment: In vitro enzymatic hydrolysis of triglycerides: glycerol trioleate, lipase; format: biochemical; conditions: 37° C.
Procedure: as §1, §2, §3, §4, §5, §6

mice = experiment: Toxicity on mice; format: in vivo; conditions: doses up to 3000 mg/kg of body-weight

## COC[C@H]1O[C@@H]2O[C@H]3[C@H](O)[C@@H](OC)[C@@H](O[C@H]4[C@H](O)[C@@H](OC)[C@@H](O[C@H]5[C@H](O)[C@@H](OC)[C@@H](O[C@H]6[C@H](O)[C@@H](OC)[C@@H](O[C@H]7[C@H](O)[C@@H](OC)[C@@H](O[C@H]8[C@H](O)[C@@H](OC)[C@@H](O[C@H]1[C@H](O)[C@H]2OC)O[C@@H]8COC)O[C@@H]7COC)O[C@@H]6COC)O[C@@H]5COC)O[C@@H]4COC)O[C@@H]3COC [DIMEB, heptakis(2,6-di-O-methyl)-β-cyclodextrin]
bile-deficient rats; 1 h, animal 4
  Radioactivity in 10 ml of blood: 0.86 percentage
bile-deficient rats; 1 h, animal 5
  Radioactivity in 10 ml of blood: 3.45 percentage
bile-deficient rats; 1 h, animal 6
  Radioactivity in 10 ml of blood: 1.61 percentage
bile-deficient rats; 1 h, mean
  Radioactivity in 10 ml of blood: 1.97 percentage
bile-deficient rats; 2 h, animal 4
  Radioactivity in 10 ml of blood: 1.05 percentage
bile-deficient rats; 2 h, animal 5
  Radioactivity in 10 ml of blood: 3.25 percentage
bile-deficient rats; 2 h, animal 6
  Radioactivity in 10 ml of blood: 2.56 percentage
bile-deficient rats; 2 h, mean
  Radioactivity in 10 ml of blood: 2.29 percentage
bile-deficient rats; 3 h, animal 4
  Radioactivity in 10 ml of blood: 1.14 percentage
bile-deficient rats; 3 h, animal 5
  Radioactivity in 10 ml of blood: 3.22 percentage
bile-deficient rats; 3 h, animal 6
  Radioactivity in 10 ml of blood: 2.39 percentage
bile-deficient rats; 3 h, mean
  Radioactivity in 10 ml of blood: 2.25 percentage
bile-deficient rats; 4 h, animal 4
  Radioactivity in 10 ml of blood: 1.19 percentage
bile-deficient rats; 4 h, animal 5
  Radioactivity in 10 ml of blood: 3.06 percentage
bile-deficient rats; 4 h, animal 6
  Radioactivity in 10 ml of blood: 2.28 percentage
bile-deficient rats; 4 h, mean
  Radioactivity in 10 ml of blood: 2.18 percentage
bile-deficient rats; 5 h, animal 4
  Radioactivity in 10 ml of blood: 1.24 percentage
bile-deficient rats; 5 h, animal 5
  Radioactivity in 10 ml of blood: 3.08 percentage
bile-deficient rats; 5 h, animal 6
  Radioactivity in 10 ml of blood: 2.27 percentage
bile-deficient rats; 5 h, mean
  Radioactivity in 10 ml of blood: 2.20 percentage
bile-deficient rats; 6 h, animal 4
  Radioactivity in 10 ml of blood: 1.25 percentage
bile-deficient rats; 6 h, animal 5
  Radioactivity in 10 ml of blood: 2.91 percentage
bile-deficient rats; 6 h, animal 6
  Radioactivity in 10 ml of blood: 2.56 percentage
bile-deficient rats; 6 h, mean
  Radioactivity in 10 ml of blood: 2.24 percentage
bile-deficient rats; 7 h, animal 4
  Radioactivity in 10 ml of blood: 1.33 percentage
bile-deficient rats; 7 h, animal 5
  Radioactivity in 10 ml of blood: 3.03 percentage
bile-deficient rats; 7 h, animal 6
  Radioactivity in 10 ml of blood: 2.67 percentage
bile-deficient rats; 7 h, mean
  Radioactivity in 10 ml of blood: 2.34 percentage
bile-deficient rats; 8 h, animal 4
  Radioactivity in 10 ml of blood: 1.37 percentage
bile-deficient rats; 8 h, animal 5
  Radioactivity in 10 ml of blood: 3.13 percentage
bile-deficient rats; 8 h, animal 6
  Radioactivity in 10 ml of blood: 2.58 percentage
bile-deficient rats; 8 h, mean
  Radioactivity in 10 ml of blood: 2.36 percentage
bile-deficient rats; 10 h, animal 4
  Radioactivity in 10 ml of blood: 1.29 percentage
bile-deficient rats; 10 h, animal 5
  Radioactivity in 10 ml of blood: 3.26 percentage
bile-deficient rats; 10 h, animal 6
  Radioactivity in 10 ml of blood: 2.67 percentage
bile-deficient rats; 10 h, mean
  Radioactivity in 10 ml of blood: 2.41 percentage
bile-deficient rats; 24 h, animal 4
  Radioactivity in 10 ml of blood: 1.60 percentage
bile-deficient rats; 24 h, animal 5
  Radioactivity in 10 ml of blood: 4.56 percentage
bile-deficient rats; 24 h, animal 6
  Radioactivity in 10 ml of blood: 4.00 percentage
bile-deficient rats; 24 h, mean
  Radioactivity in 10 ml of blood: 3.39 percentage
bile-deficient rats; 24th hour
  Blood level relative to animals treated with stearic acid only: 1.4 times
[1]; in vitro, Table 1 overall
  Effect on the action of lipase: accelerate the action of lipase to a significant extent
[1]; reaction time 0.5 hour
  0.005 N NaOH consumed: 1.74 mL
[1]; reaction time 1 hour
  0.005 N NaOH consumed: 2.00 mL
[1]; reaction time 2 hour
  0.005 N NaOH consumed: 2.20 mL
[1]; reaction time 19 hour
  0.005 N NaOH consumed: 4.77 mL
Bile duct-ligated rats; bile duct-ligated rats, 1.5 ml fat + 75 mg DIMEB
  Increase of total lipid fraction in the blood plasma: 5 fold
Bile duct-ligated rats; rats after bile duct-ligation, 1.5 ml fat + 75 mg DIMEB oral, after 4.5 hours
  Total lipid concentration of the blood plasma: 1266.6 ± 86.5 mg/100 ml
[2]; after intravenous administration
  Time to complete elimination through the kidneys: ≤ 6 h
[2]; animal experiments, oral
  Absorption after oral administration: not absorbed
Intact rats; intact rats, oil + 50 mg DIMEB, 4th hour
  Increase of plasma triglyceride concentration: more than 100%
Intact rats; Hour 1
  Plasma triglyceride concentration: 44 ± 6 mg/100 ml
  Free fatty acid concentration in the plasma: 326 ± 15 mg/100 ml
Intact rats; Hour 2.5
  Plasma triglyceride concentration: 61 ± 18 mg/100 ml
  Free fatty acid concentration in the plasma: 494 ± 183 mg/100 ml
Intact rats; Hour 4
  Plasma triglyceride concentration: 121 ± 7 mg/100 ml
  Free fatty acid concentration in the plasma: 641 ± 126 mg/100 ml
Intact rats; Hour 6
  Plasma triglyceride concentration: 122 ± 15 mg/100 ml
  Free fatty acid concentration in the plasma: 347 ± 65 mg/100 ml
lipase; series Bile II, glycerol trioleate, reaction time 1 hour
  0.005 N NaOH consumed: 0.34 mL
lipase; series Bile II, glycerol trioleate, reaction time 2 hour
  0.005 N NaOH consumed: 0.80 mL
lipase; series Bile II, glycerol trioleate, reaction time 3 hour
  0.005 N NaOH consumed: 1.16 mL
lipase; series Bile II, glycerol trioleate, reaction time 21 hour
  0.005 N NaOH consumed: 1.86 mL
lipase; series Bile III, glycerol triolate, reaction time 1 hour
  0.005 N NaOH consumed: 0.28 mL
lipase; series Bile III, glycerol triolate, reaction time 2 hour
  0.005 N NaOH consumed: 0.68 mL
lipase; series Bile III, glycerol triolate, reaction time 4 hour
  0.005 N NaOH consumed: 1.20 mL
mice
  Toxic phenomena: no toxic phenomena
